Test results taken from article PMC11509912, “Identification of Novel PPARγ Partial Agonists Based on Virtual Screening Strategy: In Silico and In Vitro Experimental Validation” (Molecules, 2024).

Experiments:
PPARγ [1] = biological target: T1, PPARγ (Homo sapiens, UniProt P37231); test: cos-7 cells transfected with hPPARγ, PPRE×[…] TK-luciferase transactivation assay at […]; type: cell-based
T1 construct: gene PPARG; hPPARγ plasmid
T1 sequence (P37231 1-505): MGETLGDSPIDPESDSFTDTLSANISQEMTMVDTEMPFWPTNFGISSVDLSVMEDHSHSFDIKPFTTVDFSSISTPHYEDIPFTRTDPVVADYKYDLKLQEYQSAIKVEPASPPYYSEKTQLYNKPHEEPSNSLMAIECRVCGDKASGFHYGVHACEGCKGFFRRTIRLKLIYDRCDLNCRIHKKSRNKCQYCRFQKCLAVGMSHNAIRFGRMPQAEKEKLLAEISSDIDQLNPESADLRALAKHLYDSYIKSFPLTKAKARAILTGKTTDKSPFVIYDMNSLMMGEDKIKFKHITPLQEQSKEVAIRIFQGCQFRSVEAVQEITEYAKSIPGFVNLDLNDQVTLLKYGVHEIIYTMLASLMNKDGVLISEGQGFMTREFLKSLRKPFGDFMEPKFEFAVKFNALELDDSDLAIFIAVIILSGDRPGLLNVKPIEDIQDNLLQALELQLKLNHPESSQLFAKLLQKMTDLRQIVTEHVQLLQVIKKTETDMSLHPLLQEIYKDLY

PPARγ [2] = biological target: T2, PPARγ (Homo sapiens, UniProt P37231); test: LanthaScreen TR-FRET competitive binding assay (IC50 […]); supported by cell-based PPRE-luciferase assay (weak/partial agonism)
T2 construct: gene PPARG; PPARγ LBD
T2 sequence (P37231 231-505 limits assumed): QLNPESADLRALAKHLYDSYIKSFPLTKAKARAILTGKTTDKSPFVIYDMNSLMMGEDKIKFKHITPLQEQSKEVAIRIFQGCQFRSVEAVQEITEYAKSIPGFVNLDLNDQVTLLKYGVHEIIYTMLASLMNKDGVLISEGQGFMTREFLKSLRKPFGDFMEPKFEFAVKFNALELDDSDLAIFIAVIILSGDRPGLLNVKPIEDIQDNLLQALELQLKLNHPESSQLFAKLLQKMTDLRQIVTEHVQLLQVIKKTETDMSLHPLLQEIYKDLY

Compound	cos-7 cells transfected with hPPARγ, PPRE×3 TK-luciferase transactivation assay (PPARγ [1])	Ki (PPARγ [2]) [µM]
Clc1ccc(C(Cn2ccnc2)OCc2ccc(Sc3ccccc3)cc2)c(Cl)c1 (centres unmarked) [FN, fenticonazole]	podophyllotoxone exhibited weak PPARγ agonistic activity, similar to fenticonazole (FN), a PPARγ partial agonist	–
COc1cc([C@@H]2c3cc4c(cc3C(=O)[C@H]3COC(=O)[C@H]23)OCO4)cc(OC)c1OC [podophyllotoxone]	–	9.86
